Like-named read-outs stand apart in the source and are kept apart here.
Key:
[1] = system: human acute promyelocytic leukemia cell strain HL-60; assay: Differentiation induction of HL-60 cells, NBT-reducing ability; format: cell-based; details: 96 h, cultured four days, NBT reduction, read-out: ED50 (the source's name)
Procedure: Cells of human acute promyelocytic leukemia cell strain HL-60 were cultured in a CO2 incubator (5% CO2, 37° C.) using the RPMI medium containing 5% FBS. Differentiation inducing action of the compounds of the present invention on the HL-60 cells were evaluated on the basis of ability to reduce nitroblue tetrazolium (NBT) determined by observing differentiation from promyelocytic cells into granulocytic cells as an index. As positive control of retinoid compounds, retinoic acid and Am80 [4-[(5,6,7,8-tetrahydro-5,5,8,8-tetramethyl-2-naphthalenyl)carbamoyl]benzoic acid] were used. The cells that entered into the logarithmic phase and reached a substantially confluent state were centrifuged at 1000 rpm for 5 minutes, and the culture supernatant was removed. The cell pellet was suspended in fresh RPMI medium containing 5% FBS at a density of 8.0×10^4 cells/ml, then the suspension was added with a test compound dissolved in DMSO at an intended concentration, and the cells were cultured for four days and then used for the experiment. The samples were prepared so as to have the same DMSO concentration.
Cell count of the cells after the culture for a predetermined period was determined by a cell counting method using a blood cell counting chamber. The NBT-reducing ability was obtained as follows. NBT was dissolved in a phosphate buffered saline (PBS(−)) at a concentration of 0.2%, and the solution was added with an equivalent volume of the RPMI medium containing 5% FBS. The mixture was added with phorbol 12-myristate 13-acetate (tPA) at a concentration of 0.2 μM (about 200 ng) to prepare a reagent solution. The collected cells were centrifuged at 1000 rpm for 5 minutes, the supernatant was removed, and the remained cell pellet was added with the reagent solution. The mixture was incubated on a water bath at 37° C. for 20 minutes, and then NBT-reduced stained positive cells were counted by using the counting chamber to calculate a differentiation induction ratio.

[2] = cited from earlier work

Row | SMILES | melting point [°C] | EC50 [1] [nM] | also measured
1 | CC(C)c1cc(C(C)C)c(C(=O)Nc2ccc(C(=O)O)cc2)[nH]1 [Compound 13, 4-[(3,5-Diisopropylpyrrole-2-carbonyl)amino]benzoic acid] | 225 to 226 | – | –
2 | CC(C)c1cc(C(=O)Nc2ccc(C(=O)O)nc2)sc1C(C)C [Compound 16, 5-[(4,5-Diisopropylthiophene-2-carbonyl)amino]pyridine-2-carboxylic acid] | 216 to 217 | – | –
3 | CC(C)c1cc(C(=O)Nc2ccc(C(=O)O)c(Cl)c2)oc1C(C)C [Compound 23, 2-Chloro-4-[(4,5-diisopropylfuran-2-carbonyl)amino]benzoic acid] | 152 to 153 | – | –
4 | CC(C)c1cc(C(=O)Nc2ccc(C(=O)O)c(Cl)c2)sc1C(C)C [Compound 40, 2-Chloro-4-[(4,5-diisopropylthiophene-2-carbonyl)amino]benzoic acid] | 222 to 223 | – | –
5 | CC(C)c1cc(C(=O)Nc2ccc(C(=O)O)c(O)c2)oc1C(C)C [Compound 24, 2-Hydroxy-4-[(4,5-diisopropylfuran-2-carbonyl)amino]benzoic acid] | 179 to 180 | – | –
6 | CC(C)c1cc(C(=O)Nc2ccc(C(=O)O)s2)oc1C(C)C [Compound 9, 5-[(4,5-Diisopropylfuran-2-carbonyl)amino]thiophene-2-carboxylic acid] | 227 to 228.5 | 72.9 | –
7 | CC(C)c1cc(C(=O)Nc2ccc(C(=O)O)c(F)c2)oc1C(C)C [Compound 22, 2-Fluoro-4-[(4,5-diisopropylfuran-2-carbonyl)amino]benzoic acid] | 151 to 152 | – | –
8 | CC1(C)CCC(C)(C)c2cc(NC(=O)c3ccc(C(=O)O)cc3)ccc21 [Am80, 4-[(5,6,7,8-tetrahydro-5,5,8,8-tetramethyl-2-naphthalenyl)carbamoyl]benzoic acid, reference compound] | – | 1.6 | –
9 | CC(C)c1cc(C(=O)Nc2cc(F)c(C(=O)O)c(F)c2)sc1C(C)C [Compound 43, 2,6-Difluoro-4-[(4,5-diisopropylthiophene-2-carbonyl)amino]benzoic acid] | 218 to 219 | – | –
10 | COc1cc(NC(=O)c2cc(C(C)C)c(C(C)C)s2)ccc1C(=O)O [Compound 42, 2-Methoxy-4-[(4,5-diisopropylthiophene-2-carbonyl)amino]benzoic acid] | 213 to 214 | – | –
11 | COc1cc(NC(=O)c2cc(C(C)C)c(C(C)C)o2)ccc1C(=O)O [Compound 25, 2-Methoxy-4-[(4,5-diisopropylfuran-2-carbonyl)amino]benzoic acid] | 136 to 137 | – | –
12 | CC(C)(C)c1ccc(C(=O)Nc2ccc(C(=O)O)cc2)s1 [4-[(5-t-butylthiophene-2-carbonyl)amino]benzoic acid] | – | – | differentiation induction ([2]; at 0.22 μM): no differentiation induction; differentiation induction ratio ([2]; at 1.1 μM): 22%; differentiation induction ratio ([2]; at 5.6 μM): 23%
13 | CC(C)c1cc(C(=O)Nc2ccc(CCC(=O)O)cc2)oc1C(C)C [Compound 6, 3-[4-[(4,5-Diisopropylfuran-2-carbonyl)amino]phenyl]propionic acid] | 139 to 141 | > 1000 | –
14 | C/C(=C\C(=O)Nc1ccc(C(=O)O)cc1)c1cc(C(C)C)c(C(C)C)o1 [Compound 11, 4-[[3-(4,5-Diisopropyl-2-furanyl)crotonoyl]amino]benzoic acid] | 232.5 to 235 | 74.7 | –
15 | CC(C)c1cc(/C=C/C(=O)N(C)c2ccc(C(=O)O)cc2)oc1C(C)C [Compound 27, 4-[[3-(4,5-Diisopropyl-2-furanyl)acryloyl]methylamino]benzoic acid] | 213 to 214 | – | –
16 | CC(C)c1cc(C(=O)Nc2ccc(C(=O)O)nc2)oc1C(C)C [Compound 7, 5-[(4,5-Diisopropylfuran-2-carbonyl)amino]pyridine-2-carboxylic acid] | 106 to 107.5 | 13.1 | –
17 | CC(C)c1[nH]c(C(=O)Nc2ccc(C(=O)O)cc2)c(C(C)C)c1C(C)C [Compound 14, 4-[(3,4,5-Triisopropylpyrrole-2-carbonyl)amino]benzoic acid] | > 300 | > 1000 | –

Row | SMILES | melting point [°C] | EC50 [1] [nM] | also measured
18 | CC(C)c1cc(C(=O)Nc2ccc(C(=O)O)cn2)oc1C(C)C [Compound 8, 6-[(4,5-Diisopropylfuran-2-carbonyl)amino]pyridine-3-carboxylic acid] | 278 to 279 | 1.9 | –
19 | CC(C)c1cc(C(=O)Nc2ccc3[nH]c(C(=O)O)cc3c2)oc1C(C)C [Compound 36, 5-[(4,5-Diisopropylfuran-2-carbonyl)amino]-2-indolecarboxylic acid] | 240 to 243 | – | –
20 | CC(C)c1cc(C(=O)Nc2ccc(C(=O)O)cc2)[nH]c1C(C)C [Compound 12, 4-[(4,5-Diisopropylpyrrole-2-carbonyl)amino]benzoic acid] | 230 to 230.5 | 40.4 | –
21 | CC(C)c1cc(C(=O)Nc2cccc(C(=O)O)c2)oc1C(C)C [Compound 5, 3-[(4,5-Diisopropylfuran-2-carbonyl)amino]benzoic acid] | 243.5 to 245 | – | –
22 | CC(C)c1cc(C(=O)Nc2ccc(C(=O)O)o2)oc1C(C)C [Compound 35, 5-[(4,5-Diisopropylfuran-2-carbonyl)amino]-2-furancarboxylic acid] | 169 to 171 | – | –
23 | CC(C)c1cc(C(=O)Nc2ccc(C(=O)O)c(O)c2)sc1C(C)C [Compound 41, 2-Hydroxy-4-[(4,5-diisopropylthiophene-2-carbonyl)amino]benzoic acid] | 129 to 130 | – | –
24 | CC(C)(C)c1ccc(C(=O)Nc2ccc(C(=O)O)cc2)o1 [4-[(5-t-butylfuran-2-carbonyl)amino]benzoic acid] | – | – | differentiation induction ratio ([2]; at 3.7 μM): 26%; differentiation induction ratio ([2]; at 19 μM): 42%; differentiation induction ratio ([2]; at 74 μM): 60%
25 | CC(C)c1cc(/C=C/C(=O)N(C)c2cccc(C(=O)O)c2)oc1C(C)C [Compound 29, 3-[[3-(4,5-Diisopropyl-2-furanyl)acryloyl]methylamino]benzoic acid] | 187.5 to 189 | – | –
26 | CC(C)c1cc(/C=C/C(=O)Nc2cccc(C(=O)O)c2)oc1C(C)C [Compound 28, 3-[[3-(4,5-Diisopropyl-2-furanyl)acryloyl]amino]benzoic acid] | 220.5 to 221.5 | – | –
27 | CC(C)c1cc(C(=O)Nc2ccc(OCC(=O)O)cc2)oc1C(C)C [Compound 3, 4-[(4,5-Diisopropylfuran-2-carbonyl)amino]phenyloxyacetic acid] | 83 to 85 | – | –
28 | CC(C)c1cc(C(=O)Nc2ccc(CC(=O)O)cc2)oc1C(C)C [Compound 4, 4-[(4,5-Diisopropylfuran-2-carbonyl)amino]phenylacetic acid] | 154 to 156 | – | –
29 | CC(C)c1cc(C(=O)Nc2ccc(C(=O)O)cn2)sc1C(C)C [Compound 17, 6-[(4,5-Diisopropylthiophene-2-carbonyl)amino]pyridine-3-carboxylic acid] | > 300 | – | –
30 | CC(C)c1cc(/C=C/C(=O)Nc2ccc(C(=O)O)cc2)oc1C(C)C [Compound 10, 4-[[3-(4,5-Diisopropyl-2-furanyl)acryloyl]amino]benzoic acid] | 131 to 133 | 166 | –
31 | CC(C)c1cc(C(=O)Nc2ccc(C(=O)O)cc2)sc1C(C)C [Compound 15, 4-[(4,5-Diisopropylthiophene-2-carbonyl)amino]benzoic acid] | 219 to 221 | 1.8 | –
32 | CC(C)c1cc(C(=O)Nc2ccc(C(=O)O)c(F)c2)sc1C(C)C [Compound 39, 2-Fluoro-4-[(4,5-diisopropylthiophene-2-carbonyl)amino]benzoic acid] | 133 to 135 | – | –
33 | CC(C)c1cc(C(=O)Nc2ccc(C(=O)O)cc2)oc1C(C)C [Compound 1, 4-[(4,5-Diisopropylfuran-2-carbonyl)amino]benzoic acid] | 120 to 121 | 1.1 | –
